Laboratory results: US20220023401A1 (priority 2020, published 2022)
Where “and” joins values, the source holds several entries; their conditions need not be identical. Equal values may be shown once.

Assays:
[1] = test system: Peripheral Blood Mononuclear Cells (PBMCs); format: cell-based, Cynomolgus macaque
[2] = test system: Peripheral blood mononuclear cells (PBMC); format: cell-based, human
[3] = test system: Peripheral blood mononuclear cells (PBMC); format: cell-based, human; remark: listed apart in the source
[4] = test system: sera from vaccinated baboons (anti-Aβ antibodies); format: binding
[5] = test system: antisera from immunized Cynomolgus macaques; format: binding; design: unit not given here
baboon anti-Aβ antibody = format: binding, baboons
Aβ1-42 = test system: Aβ1-42; design: species or system guinea pigs; conditions: guinea pig, in vivo
MvF4 Th (SEQ ID NO: 44) = test system: MvF4 Th (SEQ ID NO: 44); design: species or system guinea pigs; conditions: guinea pig, in vivo
[6] = test system: HBsAg2 Th (SEQ ID NO: 45); design: species or system guinea pigs; conditions: guinea pig, in vivo

Substance	ELISA Titer (Log10) [4]	Specificity analysis of antisera (ELISA reactivity with peptide) [5]	also measured
phytohaemagglutinin [PHA]			IL-2 cytokine concentration [1]: 97.5 ± 6.6 pg/mL and 90.6 ± 12.4 pg/mL and 96.1 ± 13.3 pg/mL; IL-6 cytokine concentration [1]: 69.1 ± 12.0 pg/mL and 70.6 ± 15.7 pg/mL and 66.2 ± 7.3 pg/mL; TNF-α cytokine concentration [1]: 91.0 ± 29.1 pg/mL and 96.1 ± 22.2 pg/mL and 89.0 ± 13.7 pg/mL; Mean stimulation index, Difference [2]: −0.98; Mean stimulation index, Week 0 [2]: 28.73; Mean stimulation index, Week 16 [2]: 27.75; proliferation response by lymphocytes when added to the culture medium ([2]; 10 μg/mL): positive proliferation responses; IFN-γ mean cytokine concentration, Week 0 [3]: >320.00 pg/mL; IFN-γ mean cytokine concentration, Week 16 [3]: >318.91 pg/mL; IL-2 mean cytokine concentration, Week 0 [3]: 10.38^7 pg/mL; IL-2 mean cytokine concentration, Week 16 [3]: 12.84^7 pg/mL; IL-6 mean cytokine concentration, Week 0 [3]: >320.00 pg/mL; IL-6 mean cytokine concentration, Week 16 [3]: >320.00 pg/mL; IL-10 mean cytokine concentration, Week 0 [3]: 173.83 pg/mL; IL-10 mean cytokine concentration, Week 16 [3]: >162.77 pg/mL; TNF-α mean cytokine concentration, Week 0 [3]: >313.01 pg/mL; TNF-α mean cytokine concentration, Week 16 [3]: >300.87 pg/mL
HHQKLVFFAE (PEPTIDE (1)..(10) Abeta 13-22 or APP 770(H684-E693); listed as Homo sapiens) [SEQ ID NO: 28]	0.19 Log10 and 0.22 Log10 and 0.13 Log10 and 0.12 Log10	0.044 and 0.052 and 0.046 and 0.032	
AEFRHDSGYE (PEPTIDE (1)..(10) Abeta 2-11 or APP 770(A673-E682); listed as Homo sapiens) [SEQ ID NO: 17]	0.25 Log10 and 0.35 Log10 and 0.19 Log10	0.058 and 0.059 and 0.054 and 0.060	Percent (%) Inhibition ELISA after peptide pre-absorption of sera (baboon anti-Aβ antibody): 0%
HQKLVFFAED (PEPTIDE (1)..(10) Abeta 14-23 or APP 770(H685-D694); listed as Homo sapiens) [SEQ ID NO: 29]	0.18 Log10 and 0.21 Log10 and 0.13 Log10	0.050 and 0.058 and 0.047	
SEVKMDAEFR (PEPTIDE (1)..(10) Abeta -5-5 or APP 770(S667-R676); listed as Homo sapiens) [SEQ ID NO: 12]	0.21 Log10 and 0.24 Log10 and 0.16 Log10 and 0.13 Log10	0.056 and 0.053 and 0.054 and 0.050	
VKMDAEFRHD (PEPTIDE (1)..(10) Abeta -3-7 or APP 770(V669-D678); listed as Homo sapiens) [SEQ ID NO: 14]	0.27 Log10 and 0.46 Log10 and 0.48 Log10 and 0.55 Log10	0.068 and 0.053 and 0.061 and 0.054	
Aβ1-14-ϵK-KKK-MvF4 Th [SEQ ID NO: 62]			Aβ1-42 ELISA (SEQ ID NO: 1) Log10 Titer, Geomean (Aβ1-42): 4.208 Log10; MvF4 Th ELISA (SEQ ID NO: 44) Log10 Titer (MvF4 Th (SEQ ID NO: 44)): 0.268 Log10 and 0.216 Log10 and 0.196 Log10 and 0.179 Log10 and 0.332 Log10 and 0.286 Log10; MvF4 Th ELISA (SEQ ID NO: 44) Log10 Titer, Geomean (MvF4 Th (SEQ ID NO: 44)): 0.240 Log10; reactivity against the two T helper epitopes (SEQ ID NOs: 44 and 45) (MvF4 Th (SEQ ID NO: 44)): little or no reactivity; HBsAg2 Th ELISA (SEQ ID NO: 45) Log10 Titer, Geomean [6]: 0.397 Log10
KMDAEFRHDS (PEPTIDE (1)..(10) Abeta -2-8 or APP 770(K670-S679); listed as Homo sapiens) [SEQ ID NO: 15]	0.26 Log10 and 0.36 Log10 and 0.41 Log10 and 0.51 Log10		
TEEISEVKMD (PEPTIDE (1)..(10) Abeta -9-1 or APP 770(T663-D672); listed as Homo sapiens) [SEQ ID NO: 8]	0.23 Log10 and 0.26 Log10 and 0.16 Log10 and 0.15 Log10	0.075 and 0.084 and 0.061 and 0.078	
ISEVKMDAEF (PEPTIDE (1)..(10) Abeta -6-4 or APP 770(I666-F675); listed as Homo sapiens) [SEQ ID NO: 11]	0.20 Log10 and 0.15 Log10 and 0.13 Log10	0.055 and 0.058 and 0.063 and 0.062	
EISEVKMDAE (PEPTIDE (1)..(10) Abeta -7-3 or APP 770(E665-E674); listed as Homo sapiens) [SEQ ID NO: 10]	0.23 Log10 and 0.25 Log10 and 0.16 Log10 and 0.14 Log10	0.060 and 0.056 and 0.064 and 0.053	
YEVHHQKLVF (PEPTIDE (1)..(10) Abeta 10-19 or APP 770(Y681-F690); listed as Homo sapiens) [SEQ ID NO: 25]	0.16 Log10 and 0.43 Log10 and 0.15 Log10 and 0.22 Log10	0.092 and 0.069 and 0.058	
RHDSGYEVHH (PEPTIDE (1)..(10) Abeta 5-14 or APP 770(R676-H685); listed as Homo sapiens) [SEQ ID NO: 20]	0.23 Log10 and 0.34 Log10 and 0.27 Log10 and 0.41 Log10	0.296 and 0.400 and 0.453 and 0.461	
SGYEVHHQKL (PEPTIDE (1)..(10) Abeta 8-17 or APP 770(S679-L688); listed as Homo sapiens) [SEQ ID NO: 23]		0.097 and 0.071 and 0.077 and 0.082	
HDSGYEVHHQ (PEPTIDE (1)..(10) Abeta 6-15 or APP 770(H677-Q686); listed as Homo sapiens) [SEQ ID NO: 21]		0.266 and 0.494 and 0.419 and 0.332	
Aβ1-14-ϵK-HBsAg2 Th [SEQ ID NO: 63]			Aβ1-42 ELISA (SEQ ID NO: 1) Log10 Titer (Aβ1-42): 3.596 Log10 and 3.653 Log10 and 3.696 Log10 and 3.681 Log10 and 3.836 Log10 and 3.744 Log10; Aβ1-42 ELISA (SEQ ID NO: 1) Log10 Titer, Geomean (Aβ1-42): 3.700 Log10; MvF4 Th ELISA (SEQ ID NO: 44) Log10 Titer (MvF4 Th (SEQ ID NO: 44)): 0.575 Log10 and 0.423 Log10 and 0.380 Log10 and 0.279 Log10 and 0.336 Log10 and 0.425 Log10; MvF4 Th ELISA (SEQ ID NO: 44) Log10 Titer, Geomean (MvF4 Th (SEQ ID NO: 44)): 0.393 Log10; reactivity against the two T helper epitopes (SEQ ID NOs: 44 and 45) (MvF4 Th (SEQ ID NO: 44)): little or no reactivity; HBsAg2 Th ELISA (SEQ ID NO: 45) Log10 Titer, Geomean [6]: 0.375 Log10
EFRHDSGYEV (PEPTIDE (1)..(10) Abeta 3-12 or APP 770(E674-V683); listed as Homo sapiens) [SEQ ID NO: 18]	0.24 Log10 and 0.30 Log10 and 0.18 Log10	0.047 and 0.060 and 0.042 and 0.052	Percent (%) Inhibition ELISA after peptide pre-absorption of sera (baboon anti-Aβ antibody): 0% and 1% and 3%
EVKMDAEFRH (PROPEP (1)..(10) Abeta -4-6 or APP 770(E668-H677); listed as Homo sapiens) [SEQ ID NO: 13]	0.19 Log10 and 0.23 Log10 and 0.16 Log10 and 0.14 Log10	0.046 and 0.047 and 0.054	
QKLVFFAEDV (PEPTIDE (1)..(10) Abeta 15-24 or APP 770(Q686-V695); listed as Homo sapiens) [SEQ ID NO: 30]		0.043 and 0.055 and 0.062 and 0.059	
EEISEVKMDA (PEPTIDE (1)..(10) Abeta -8-2 or APP 770(E664-A673); listed as Homo sapiens) [SEQ ID NO: 9]	0.24 Log10 and 0.30 Log10 and 0.21 Log10 and 0.22 Log10	0.082 and 0.092 and 0.081 and 0.076	
GYEVHHQKLV (PEPTIDE (1)..(10) Abeta 9-18 or APP 770(G680-V689); listed as Homo sapiens) [SEQ ID NO: 24]	0.13 Log10 and 0.27 Log10 and 0.19 Log10 and 0.12 Log10	0.055 and 0.067 and 0.052 and 0.059	
FRHDSGYEVH (PEPTIDE (1)..(10) Abeta 4-13 or APP 770(F675-H684); listed as Homo sapiens) [SEQ ID NO: 19]	0.20 Log10 and 0.40 Log10 and 0.22 Log10 and 0.30 Log10	0.085 and 0.076 and 0.066 and 0.096	
MDAEFRHDSG (PEPTIDE (1)..(10) Abeta -1-9 or APP 770(M671-G680); listed as Homo sapiens) [SEQ ID NO: 16]	0.26 Log10 and 0.32 Log10 and 0.16 Log10 and 0.17 Log10	0.056 and 0.061 and 0.051	Percent (%) Inhibition ELISA after peptide pre-absorption of sera (baboon anti-Aβ antibody): 8%
